Laboratory results taken from patent US20260206761A1, “HETEROARYL-TRIAZOLE COMPOUNDS AS PESTICIDES” (Bayer Aktiengesellschaft, priority 2019, published 2026).

Tests used:
Type in all cases: in vivo
[1] = system: adult engorged female ticks (Rhipicephalus microplus); assay: Rhipicephalus (Boophilus) microplus injection test; details: 168 h, egg deposition after 7 days, read-out: activity (efficacy: infertile eggs); for pest or weed control at 4 pg: application rate 4 pg/animal; for pest or weed control at 0.02 mg: application rate 20 μg/animal
Description: Rhipicephalus (Boophilus) microplus—Injection Test
(§1) Solvent: dimethyl sulfoxide
To produce a suitable preparation of active compound, 10 mg of active compound are dissolved in 0.5 mL solvent, and the concentrate is diluted with solvent to the desired concentration.
Five adult engorged female ticks (Rhipicephalus microplus) are injected with 1 μL compound solution into the abdomen. The ticks are transferred into replica plates and incubated in a climate chamber.
After 7 days egg deposition of fertile eggs is monitored. Eggs where fertility is not visible are stored in a climate chamber till hatching after about 42 days. An efficacy of 100% means all eggs are infertile; 0% means all eggs are fertile.

[2] = system: fall armyworm larvae (Spodoptera frugiperda); assay: Spodoptera frugiperda spray test; details: 168 h, read-out: activity (mortality)
Description: Spodoptera frugiperda—Spray Test
Solvent: 78.0 parts by weight acetone • 1.5 parts by weight dimethylformamide
(§2) Emulsifier: alkylarylpolyglycol ether
To produce a suitable preparation of active compound, 1 part by weight of active compound is mixed with the stated amount of solvents and is diluted with water, containing an emulsifier concentration of 1000 ppm, to the desired concentration. Further test concentrations are prepared by dilution with emulsifier containing water.
Maize (Zea mays) leaf sections are sprayed with a preparation of the active ingredient of the desired concentration. Once dry, the leaf sections are infested with fall armyworm larvae (Spodoptera frugiperda).
After 7 days mortality in % is determined. 100% means all caterpillars have been killed and 0% means none of the caterpillars have been killed.

[3] = system: Rhipicephalus microplus larvae (strain Parkhurst, resistant against synthetic pyrethroids); assay: Rhipicephalus (Boophilus) microplus in-vitro contact test, larval cattle tick; details: after 48 hours, read-out: activity (efficacy: larvae dead or moribund); for pest or weed control at 100 g/ha: application rate 1 pg/cm^2 (=100 g/ha); for pest or weed control at 500 g/ha: application rate 5 pg/cm^2 (=500 g/ha)
Description: Rhipicephalus (Boophilus) microplus—In-Vitro Contact Tests Larval Cattle Tick (Strain Parkhurst. Resistant Against Synthetic Pyrethroids)
(§3) 9 mg compound is solved in 1 mL acetone and diluted with acetone to the desired concentration. 250 μL of the test solution is filled in 25 mL glass test tubes and homogeneously distributed on the inner walls by rotation and tilting on a shaking device (2 h at 30 rpm). With a compound concentration of 900 ppm, an inner surface of 44.7 cm^2 and a homogeneous distribution, a dose of 5 μg/cm^2 is achieved.
After the solvent has evaporated, each test tube is filled with 20-50 cattle tick larvae (Rhipicephalus microplus), closed with a perforated lid and incubated in a horizontal position at 85% relative humidity and 27° C. in an incubator. After 48 hours efficacy is determined. The larvae are patted on the ground of the tubes and negative geotactic behaviour is recorded.
An efficacy of 100% means all larvae are dead or moribund; 0% means no larvae are dead or moribund.

[4] = system: adult unfed cat fleas (Ctenocephalides felis); assay: Ctenocephalides felis oral test; details: 48 h, read-out: activity (mortality)
Description: Ctenocephalides felis—Oral Test
as §1
To produce a suitable preparation of active compound, 10 mg of active compound are dissolved in 0.5 mL solvent, and the concentrate is diluted with cattle blood to the desired concentration.
Approximately 20 adult unfed cat fleas (Ctenocephalides felis) are placed in flea chambers. The blood chamber, sealed with parafilm on the bottom, are filled with cattle blood supplied with compound solution and placed on the gauze covered top of the flea chamber, so that the fleas are able to suck the blood. The blood chamber is heated to 37° C. whereas the flea chamber is kept at room temperature.
After 2 days mortality in % is determined. 100% means all the fleas have been killed; 0% means none of the fleas have been killed.

[5] = system: adult brown dog ticks (Rhipicephalus sanguineus); assay: Rhipicephalus sanguineus in-vitro contact test, adult brown dog ticks; details: after 48 hours, read-out: activity (efficacy: ticks dead or moribund); for pest or weed control at 5 µg/cm2, 500 g/ha: application rate 5 μg/cm^2 (=500 g/ha); for pest or weed control at 100 g/ha: application rate 1 pg/cm^2 (=100 g/ha)
Description: Rhipicephalus sanguineus—In-Vitro Contact Tests with Adult Brown Dog Ticks
as §3
After the solvent has evaporated, each test tube is filled with 5-10 adult brown dog ticks (Rhipicephalus sanguineus), closed with a perforated lid and incubated in a lying position at room temperature and relative humidity. After 48 hours efficacy is determined. The ticks are patted on the ground of the tubes and are incubated on a heating plate at 45-50° C. for at most 5 minutes. Immotile or uncoordinated moving ticks, which are not able to escape the heat by climbing upwards, are marked as dead or moribund.
An efficacy of 100% means all ticks are dead or moribund; 0% means no ticks are dead or moribund.

[6] = system: green peach aphid (Myzus persicae); assay: Myzus persicae oral test; details: 120 h, application rate 4 ppm, after 5 days
Description: Solvent: 100 parts by weight acetone
To produce a suitable preparation of active compound, 1 part by weight of active compound is mixed with the stated amount of solvent, and the concentrate is diluted with water to the desired concentration.
50 μL compound solution is filled in microtiter plates and 150 μL IPL41 insect medium (33%+15% sugar) is added to obtain a total volume of 200 μL per well. Afterwards the plates are sealed with parafilm through which a mixed population of the green peach aphid (Myzus persicae) can suck on the compound preparation.
After 5 days mortality in % is determined. 100% means all aphids have been killed and 0% means none of the aphids have been killed.

[7] = system: Aedes aegypti strain MONHEIM; assay: Aedes aegypti test (AEDSAE surface treatment & contact assay); details: 24 hours after contact, read-out: efficacy (mortality); for mortality at 4 mg/m2: surface concentration 4 mg/m^2, exposure 30 minutes
Description: Aedes aegypti Test (AEDSAE Surface Treatment & Contact Assay)
Solvent: Aceton+2000 ppm rapeseed oil methyl ester (RME)
In order to produce a sufficient, active ingredient containing solution it is necessary to solve the test compound in the solvent-mix (acetone at 2 mg/ml/RME 2000 ppm). This solution is pipetted onto a glazed tile and after evaporation of the acetone, adult mosquitoes of the species Aedes aegypti strain MONHEIM are placed onto the dried surface. The exposure time is 30 minutes. Mortality in percent (%) is determined 24 hours after contact of the insects to the treated surface. 100% mortality means that all tested insects are dead, whereas 0% means that no insect died.

[8] = system: larvae of the banded cucumber beetle (Diabrotica balteata); assay: Diabrotica balteata spray test; details: 168 h, after 7 days, read-out: activity (efficacy: seedlings grown); for pest or weed control at 500 g/ha: application rate 500 g/ha (=160 pg/well); for pest or weed control at 100 g/ha: application rate 100 g/ha (=32 pg/well)
Description: Diabrotica balteata—spray test
Solvent: 78.0 parts by weight of acetone • • 1.5 parts by weight of dimethylformamide
as §2
To produce a suitable preparation of active compound, 1 part by weight of active compound is mixed with the stated amount of solvent, and the concentrate is diluted with water, containing an emulsifier concentration of 1000 ppm, to the desired concentration. Further test concentrations are prepared by dilution with emulsifier containing water.
Soaked wheat seeds (Triticum aestivum) are placed in a multiple well plate filled with agar and some water and are incubated for 1 day to germinate (5 seeds per well). The germinated wheat seeds are sprayed with a test solution containing the desired concentration of the active ingredient. Afterwards each unit is infected with 10-20 larvae of the banded cucumber beetle (Diabrotica balteata).
After 7 days efficacy in % is determined. 100% means all the seedlings have grown up like in the untreated, uninfected control; 0% means none of the seedlings have grown.

CCCc1nc([C@H](C)NC(=O)c2cc(Cl)cc(S(C)(=O)=O)c2)n(-c2ccc(C#N)cn2)n1 [I-2]
pest or weed control at 4 pg [1]: 100%
pest or weed control at 0.02 mg [1]: 100%
mortality at 100 g/ha [2]: 83%
mortality at 500 g/ha [2]: 100%
pest or weed control at 100 g/ha [3]: 100%
pest or weed control at 500 g/ha [3]: 100%
mortality at 100 ppm [4]: 100%

CC(NC(=O)c1cc(C(F)(F)F)n(C)n1)c1nc(Cl)nn1-c1ccc(C#N)cn1 (centres unmarked) [I-33]
pest or weed control at 5 µg/cm2, 500 g/ha [5]: 80%
pest or weed control at 4 pg [1]: 80%
pest or weed control at 0.02 mg [1]: 80%
pest or weed control at 100 g/ha [3]: 100%
pest or weed control at 500 g/ha [3]: 100%
mortality at 100 ppm [4]: 100%

C[C@H](NC(=O)c1cc(C(F)(F)F)cc(S(C)(=O)=O)c1)c1ncnn1-c1ccc(S(C)(=O)=O)cn1 [II-56, 3-(methylsulfonyl)-N-[(1S)-1-{1-[5-(methylsulfonyl)pyridin-2-yl]-1H-1,2,4-triazol-5-yl}ethyl]-5-(trifluoromethyl)benzamide]
pest or weed control at 4 pg [1]: 100%
mortality at 100 ppm [4]: 100%

CC(NC(=O)c1cc(C(F)(F)F)n(C)n1)c1nc(Cl)nn1-c1ncccn1 (centres unmarked) [I-31]
pest or weed control at 4 pg [1]: 100%
pest or weed control at 0.02 mg [1]: 100%
mortality at 4 ppm [6]: 90%
pest or weed control at 100 g/ha [3]: 100%
pest or weed control at 500 g/ha [3]: 100%
mortality at 100 ppm [4]: 90%

Cc1nc([C@H](C)NC(=O)c2csc(Cl)c2)n(-c2cc(C#N)ccn2)n1 [II-19]
mortality at 4 mg/m2 [7]: 80 to 100%
pest or weed control at 4 pg [1]: 100%
pest or weed control at 0.02 mg [1]: 100%
mortality at 100 ppm [4]: 100%
pest or weed control at 500 g/ha [8]: 100%

C[C@H](NC(=O)c1cc(Cl)cc(S(=O)(=O)C(F)F)c1)c1nc(C2CC2)nn1-c1ccc(C#N)cn1 [I-27]
pest or weed control at 4 pg [1]: 100%
mortality at 100 g/ha [2]: 100%
pest or weed control at 100 g/ha [3]: 100%
pest or weed control at 500 g/ha [3]: 100%
mortality at 100 ppm [4]: 100%
pest or weed control at 100 g/ha [8]: 100%

CC(NC(=O)c1cc(C(F)(F)F)n(C)n1)c1nc(Br)nn1-c1ncccn1 (centres unmarked) [I-39]
pest or weed control at 100 g/ha [5]: 80%
pest or weed control at 5 µg/cm2, 500 g/ha [5]: 80%
pest or weed control at 4 pg [1]: 100%
pest or weed control at 100 g/ha [3]: 100%
pest or weed control at 500 g/ha [3]: 100%
mortality at 100 ppm [4]: 100%

C[C@H](NC(=O)c1cc(Cl)cc(C2(C#N)CC2)c1)c1ncnn1-c1nccs1 [II-5]
pest or weed control at 4 pg [1]: 100%
pest or weed control at 0.02 mg [1]: 100%
mortality at 500 g/ha [2]: 100%
mortality at 100 ppm [4]: 100%
pest or weed control at 500 g/ha [8]: 100%

CCS(=O)(=O)c1cc(Cl)cc(C(=O)N[C@@H](C)c2nc(C3CC3)nn2-c2ccc(C#N)cn2)c1 [I-20]
pest or weed control at 4 pg [1]: 100%
pest or weed control at 0.02 mg [1]: 100%
mortality at 100 g/ha [2]: 100%
pest or weed control at 100 g/ha [3]: 100%
pest or weed control at 500 g/ha [3]: 100%
mortality at 100 ppm [4]: 100%
pest or weed control at 100 g/ha [8]: 80%

C[C@H](NC(=O)c1cc(Cl)cc(S(C)(=O)=O)c1)c1ncnn1-c1ncc(I)s1 [II-51, 3-chloro-N-{(1S)-1-[1-(5-iodo-1,3-thiazol-2-yl)-1H-1,2,4-triazol-5-yl]ethyl}-5-(methylsulfonyl)benzamide]
pest or weed control at 100 g/ha [5]: 80%
pest or weed control at 4 pg [1]: 100%
pest or weed control at 0.02 mg [1]: 100%
mortality at 100 g/ha [2]: 100%
pest or weed control at 100 g/ha [3]: 100%
pest or weed control at 500 g/ha [3]: 100%
mortality at 100 ppm [4]: 100%
pest or weed control at 100 g/ha [8]: 100%

COc1nc([C@H](C)NC(=O)c2csc(Cl)c2)n(-c2ccc(C#N)cn2)n1 [I-8]
mortality at 4 mg/m2 [7]: 80 to 100%
mortality at 20 mg/m2 ([7]; surface concentration 20 mg/m^2, exposure 30 minutes): 80 to 100%
pest or weed control at 4 pg [1]: 80%
pest or weed control at 0.02 mg [1]: 100%
mortality at 100 ppm [4]: 80%
pest or weed control at 100 g/ha [8]: 80%
pest or weed control at 500 g/ha [8]: 100%

CCCc1nc([C@H](C)NC(=O)c2cc(Cl)cc(C3CC3)c2)n(-c2ccc(C#N)cn2)n1 [I-1]
mortality at 4 mg/m2 [7]: 80 to 100%
pest or weed control at 4 pg [1]: 100%
pest or weed control at 0.02 mg [1]: 100%
mortality at 500 g/ha [2]: 100%
pest or weed control at 100 g/ha [3]: 100%
pest or weed control at 500 g/ha [3]: 100%
mortality at 100 ppm [4]: 100%
pest or weed control at 100 g/ha [8]: 100%
pest or weed control at 500 g/ha [8]: 100%
